# Source: ChEMBL document CHEMBL1255344, “Buthionine sulfoximine has anti-Trypanosoma cruzi activity in a murine model of acute Chagas' disease and enhances the efficacy of nifurtimox” (Antimicrob Agents Chemother, 2008)
# The source made the active and inactive calls. No cut-off for these calls is given here.
# Legend:
# Mus musculus = test: Toxicity in BALB/c mouse at 220 mg/kg/day, ip measured after 20 days; assay type: organism-based; parameters: route intraperitoneal; conditions: in vivo, 480 h
# Trypanosoma cruzi [1] = test: Antitrypanosomal activity against Trypanosoma cruzi clone Dm28c metacyclic trypomastigotes infected in mouse assessed as decrease in heart parasitemia at 30 mg/kg/day, ip measured after 20 days; assay type: functional, organism-based
# Trypanosoma cruzi [2] = test: Antitrypanosomal activity against Trypanosoma cruzi clone Dm28c metacyclic trypomastigotes infected in BALB/c mouse assessed as increase in survival rate at 30 mg/kg/day, ip measured after 20 days; assay type: functional, organism-based
# Trypanosoma cruzi [3] = test: Antitrypanosomal activity against Trypanosoma cruzi clone Dm28c metacyclic trypomastigotes infected in mouse assessed as decrease in heart parasite burden at 30 mg/kg/day, ip measured after 20 days; assay type: functional, organism-based
# Trypanosoma cruzi [4] = test: Antitrypanosomal activity against Trypanosoma cruzi clone Dm28c metacyclic trypomastigotes infected in mouse assessed as decrease in heart parasite burden at 220 mg/kg/day, ip measured after 20 days; assay type: functional, organism-based
# Trypanosoma cruzi [5] = test: Antitrypanosomal activity against Trypanosoma cruzi clone Dm28c metacyclic trypomastigotes infected in BALB/c mouse assessed as increase in survival rate at 220 mg/kg/day, ip measured after 20 days (reference value: 25%); assay type: functional
# Trypanosoma cruzi [6] = test: Antitrypanosomal activity against Trypanosoma cruzi clone Dm28c metacyclic trypomastigotes infected in BALB/c mouse assessed as increase in survival rate at 10 mg/kg/day, ip measured after 20 days; assay type: functional; conditions: 480 h, route intraperitoneal
# Trypanosoma cruzi [7] = test: Antitrypanosomal activity against Trypanosoma cruzi clone Dm28c metacyclic trypomastigotes infected in BALB/c mouse assessed as increase in survival rate at 2.5 mg/kg/day, ip measured after 20 days; assay type: functional, organism-based
# Trypanosoma cruzi [8] = test: Antitrypanosomal activity against Trypanosoma cruzi clone Dm28c metacyclic trypomastigotes infected in mouse assessed as decrease in heart parasitemia at 220 mg/kg/day, ip measured after 20 days; assay type: functional, organism-based
compound,measurement,setting,value
CCCCS(=N)(=O)CCC(N)C(=O)O (stereo not given) [BUTHIONINE SULFOXIMINE],Activity,Mus musculus,Non-toxic
same,Activity,Trypanosoma cruzi [1],inactive
same,Activity,Trypanosoma cruzi [2],inactive
same,Activity,Trypanosoma cruzi [3],inactive
same,Activity,Trypanosoma cruzi [4],Active
same,Activity,Trypanosoma cruzi [5],Active
same,survival at 220 mg/kg/day,"Trypanosoma cruzi [5]; 480 h, route intraperitoneal",≤ 80%
same,survival at 10 mg/kg/day,Trypanosoma cruzi [6],≤ 100%
same,Activity,Trypanosoma cruzi [7],inactive
same,Activity,Trypanosoma cruzi [8],Active
